Article PMC6072100, “Exploring the links between peptoid antibacterial activity and toxicity” (MedChemComm, 2017)
Square brackets hold non-standard residues; d marks the D form. Peptide text beside a SMILES is read from it. N(4-F-Bzl)Gly = O=C(O)CNCc1ccc(F)cc1; Gly(N-(CH2)6NH2) = NCCCCCCNCC(=O)O; Gly(N-2-aminoethyl) = NCCNCC(=O)O; Nspe = C[C@H](NCC(=O)O)c1ccccc1; NhArg = N=C(N)NCCCCNCC(=O)O; Nphe = O=C(O)CNCc1ccccc1; Nlys = NCCCCNCC(=O)O

What follows are compounds tested on HepG2 cells (assay: Cytotoxicity assay with HepG2 (alamarBlue)). Settings: not given.
Format: cell-based, human
How it was run: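 HepG2 cells (2 × 10^4/well, seeded 1 day earlier) were exposed to compounds (2–100 μM dilution series, triplicate) for 1 h in reduced volume, then diluted with medium and incubated 24 h at 37 °C. Viability was read by alamarBlue after 2 h (Ex 560/Em 600 nm), and ED50 (dose killing 50% of cells) came from dose-response curves.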
With `NCCCCNCC(=O)N(CC(=O)N(CC(=O)N(CCCCN)CC(=O)N(CC(=O)N(CC(=O)N(CCCCN)CC(=O)N(CC(=O)N(CC(=O)N(CCCCN)CC(=O)N(CC(=O)N(CC(N)=O)Cc1ccccc1)Cc1ccccc1)Cc1ccccc1)Cc1ccccc1)Cc1ccccc1)Cc1ccccc1)Cc1ccccc1)Cc1ccccc1` [Peptoid 4, (NLysNpheNphe)4] (H-[Nlys][Nphe][Nphe][Nlys][Nphe][Nphe][Nlys][Nphe][Nphe][Nlys][Nphe][Nphe]-NH2) the “ED50 HepG2” value was > 100 µM.
`NCCCCNCC(=O)N(CC(=O)N(CC(=O)N(CCCCN)CC(=O)N(CC(=O)N(CC(=O)N(CCCCN)CC(=O)N(CC(=O)N(CC(=O)N(CCCCN)CC(=O)N(CC(=O)N(CC(N)=O)Cc1ccc(F)cc1)Cc1ccc(F)cc1)Cc1ccc(F)cc1)Cc1ccc(F)cc1)Cc1ccc(F)cc1)Cc1ccc(F)cc1)Cc1ccc(F)cc1)Cc1ccc(F)cc1` [Peptoid 22, (NLysNpfbNpfb)4] (H-[Nlys][N(4-F-Bzl)Gly][N(4-F-Bzl)Gly][Nlys][N(4-F-Bzl)Gly][N(4-F-Bzl)Gly][Nlys][N(4-F-Bzl)Gly][N(4-F-Bzl)Gly][Nlys][N(4-F-Bzl)Gly][N(4-F-Bzl)Gly]-NH2) was tested, and the “ED50 HepG2” value was 30 µM.
With `C[C@@H](c1ccccc1)N(CC(N)=O)C(=O)CN(C(=O)CN(CCCCN)C(=O)CN(Cc1ccc(F)cc1)C(=O)CN(Cc1ccc(F)cc1)C(=O)CN(CCCCN)C(=O)CN(C(=O)CN(C(=O)CN(CCCCN)C(=O)CN(Cc1ccc(F)cc1)C(=O)CN(Cc1ccc(F)cc1)C(=O)CNCCCCN)[C@@H](C)c1ccccc1)[C@@H](C)c1ccccc1)[C@@H](C)c1ccccc1` [Peptoid 28, [(NLysNpfbNpfb)(NLysNspeNspe)]2] the “ED50 HepG2” value was 55 µM.
In the case of `CCCCCNCC(=O)N(CC(=O)N(CC(=O)N(CCCCC)CC(=O)N(CC(=O)N(CC(=O)N(CCCCN)CC(=O)N(CC(=O)N(CC(=O)N(CCCCN)CC(=O)N(CC(=O)N(CC(N)=O)[C@@H](C)c1ccccc1)[C@@H](C)c1ccccc1)[C@@H](C)c1ccccc1)[C@@H](C)c1ccccc1)[C@@H](C)c1ccccc1)[C@@H](C)c1ccccc1)[C@@H](C)c1ccccc1)[C@@H](C)c1ccccc1` [Peptoid 31, (NamyNspeNspe)2(NLysNspeNspe)2], the “ED50 HepG2” value is reported as 18 µM.
`C[C@@H](c1ccccc1)N(CC(N)=O)C(=O)CN(C(=O)CN(CCCCNC(=N)N)C(=O)CN(C(=O)CN(C(=O)CN(CCCCNC(=N)N)C(=O)CN(C(=O)CN(C(=O)CN(CCCCNC(=N)N)C(=O)CN(C(=O)CN(C(=O)CNCCCCNC(=N)N)[C@@H](C)c1ccccc1)[C@@H](C)c1ccccc1)[C@@H](C)c1ccccc1)[C@@H](C)c1ccccc1)[C@@H](C)c1ccccc1)[C@@H](C)c1ccccc1)[C@@H](C)c1ccccc1` [Peptoid 34, (NhArgNspeNspe)4] (H-[NhArg][Nspe][Nspe][NhArg][Nspe][Nspe][NhArg][Nspe][Nspe][NhArg][Nspe][Nspe]-NH2) was tested, and the “ED50 HepG2” value was 12 µM.
In the case of (NhArgNmfbNmfb)4 [Peptoid 36], the “ED50 HepG2” value is reported as 21 µM.

Same assay, conditions: dose that kills 50% of cells; 2–100 μM, 1 h with compound then 24 h, alamarBlue
`C[C@@H](c1ccccc1)N(CC(N)=O)C(=O)CN(C(=O)CN(CCCCN)C(=O)CN(C(=O)CN(C(=O)CN(CCCCN)C(=O)CN(C(=O)CN(C(=O)CN(CCCCN)C(=O)CN(C(=O)CN(C(=O)CNCCCCN)[C@@H](C)c1ccccc1)[C@@H](C)c1ccccc1)[C@@H](C)c1ccccc1)[C@@H](C)c1ccccc1)[C@@H](C)c1ccccc1)[C@@H](C)c1ccccc1)[C@@H](C)c1ccccc1` [Peptoid 13, (NLysNspeNspe)4] (H-[Nlys][Nspe][Nspe][Nlys][Nspe][Nspe][Nlys][Nspe][Nspe][Nlys][Nspe][Nspe]-NH2) was tested, and the “ED50 HepG2” value was 29 µM.
With `C[C@@H](c1ccccc1)N(CC(N)=O)C(=O)CN(C(=O)CN(CCCCN)C(=O)CN(C(=O)CN(C(=O)CN(CCCCN)C(=O)CN(C(=O)CN(C(=O)CNCCCCN)[C@@H](C)c1ccccc1)[C@@H](C)c1ccccc1)[C@@H](C)c1ccccc1)[C@@H](C)c1ccccc1)[C@@H](C)c1ccccc1` [Peptoid 14, (NLysNspeNspe)3] (H-[Nlys][Nspe][Nspe][Nlys][Nspe][Nspe][Nlys][Nspe][Nspe]-NH2) the “ED50 HepG2” value was >100 µM.
In the case of `C[C@@H](c1ccccc1)N(CC(N)=O)C(=O)CN(C(=O)CN(CCN)C(=O)CN(C(=O)CN(C(=O)CN(CCN)C(=O)CN(C(=O)CN(C(=O)CNCCN)[C@@H](C)c1ccccc1)[C@@H](C)c1ccccc1)[C@@H](C)c1ccccc1)[C@@H](C)c1ccccc1)[C@@H](C)c1ccccc1` [Peptoid 17, (NaeNspeNspe)3], the “ED50 HepG2” value is reported as >100 µM.

Same assay, conditions: human, HepG2 cells, 24 h
In the case of `NCCCCCCNCC(=O)N(CC(=O)N(CC(=O)N(CCCCCCN)CC(=O)N(CC(=O)N(CC(=O)N(CCCCCCN)CC(=O)N(CC(=O)N(CC(=O)N(CCCCCCN)CC(=O)N(CC(=O)N(CC(N)=O)Cc1ccccc1)Cc1ccccc1)Cc1ccccc1)Cc1ccccc1)Cc1ccccc1)Cc1ccccc1)Cc1ccccc1)Cc1ccccc1` [Peptoid 1, (NahNpheNphe)4] (H-[Gly(N-(CH2)6NH2)][Nphe][Nphe][Gly(N-(CH2)6NH2)][Nphe][Nphe][Gly(N-(CH2)6NH2)][Nphe][Nphe][Gly(N-(CH2)6NH2)][Nphe][Nphe]-NH2), the “ED50 HepG2” value is reported as >100 µM.
With `NCCCCCCNCC(=O)N(CC(=O)N(CC(=O)N(CCCCCCN)CC(=O)N(CC(=O)N(CC(=O)N(CCCCCCN)CC(=O)N(CC(=O)N(CC(N)=O)Cc1ccccc1)Cc1ccccc1)Cc1ccccc1)Cc1ccccc1)Cc1ccccc1)Cc1ccccc1` [Peptoid 2, (NahNpheNphe)3] (H-[Gly(N-(CH2)6NH2)][Nphe][Nphe][Gly(N-(CH2)6NH2)][Nphe][Nphe][Gly(N-(CH2)6NH2)][Nphe][Nphe]-NH2) the “ED50 HepG2” value was >100 µM.
With `NCCCCCCNCC(=O)N(CC(=O)N(CC(=O)N(CCCCCCN)CC(=O)N(CC(=O)N(CC(N)=O)Cc1ccccc1)Cc1ccccc1)Cc1ccccc1)Cc1ccccc1` [Peptoid 3, (NahNpheNphe)2] (H-[Gly(N-(CH2)6NH2)][Nphe][Nphe][Gly(N-(CH2)6NH2)][Nphe][Nphe]-NH2) the “ED50 HepG2” value was >100 µM.
In the case of `NCCCCNCC(=O)N(CC(=O)N(CC(=O)N(CCCCN)CC(=O)N(CC(=O)N(CC(=O)N(CCCCN)CC(=O)N(CC(=O)N(CC(=O)N(CCCCN)CC(=O)N(CC(=O)N(CC(N)=O)Cc1ccccc1)Cc1ccccc1)Cc1ccccc1)Cc1ccccc1)Cc1ccccc1)Cc1ccccc1)Cc1ccccc1)Cc1ccccc1` [Peptoid 4, (NLysNpheNphe)4] (H-[Nlys][Nphe][Nphe][Nlys][Nphe][Nphe][Nlys][Nphe][Nphe][Nlys][Nphe][Nphe]-NH2), the “ED50 HepG2” value is reported as >100 µM.
With `NCCCCNCC(=O)N(CC(=O)N(CC(=O)N(CCCCN)CC(=O)N(CC(=O)N(CC(=O)N(CCCCN)CC(=O)N(CC(=O)N(CC(N)=O)Cc1ccccc1)Cc1ccccc1)Cc1ccccc1)Cc1ccccc1)Cc1ccccc1)Cc1ccccc1` [Peptoid 5, (NLysNpheNphe)3] the “ED50 HepG2” value was >100 µM.
For `NCCCCNCC(=O)N(CC(=O)N(CC(=O)N(CCCCN)CC(=O)N(CC(=O)N(CC(N)=O)Cc1ccccc1)Cc1ccccc1)Cc1ccccc1)Cc1ccccc1` [Peptoid 6, (NLysNpheNphe)2] (H-[Nlys][Nphe][Nphe][Nlys][Nphe][Nphe]-NH2), the “ED50 HepG2” value was >100 µM.
With `NCCNCC(=O)N(CC(=O)N(CC(=O)N(CCN)CC(=O)N(CC(=O)N(CC(=O)N(CCN)CC(=O)N(CC(=O)N(CC(=O)N(CCN)CC(=O)N(CC(=O)N(CC(N)=O)Cc1ccccc1)Cc1ccccc1)Cc1ccccc1)Cc1ccccc1)Cc1ccccc1)Cc1ccccc1)Cc1ccccc1)Cc1ccccc1` [Peptoid 7, (NaeNpheNphe)4] (H-[Gly(N-2-aminoethyl)][Nphe][Nphe][Gly(N-2-aminoethyl)][Nphe][Nphe][Gly(N-2-aminoethyl)][Nphe][Nphe][Gly(N-2-aminoethyl)][Nphe][Nphe]-NH2) the “ED50 HepG2” value was >100 µM.
For `NCCNCC(=O)N(CC(=O)N(CC(=O)N(CCN)CC(=O)N(CC(=O)N(CC(=O)N(CCN)CC(=O)N(CC(=O)N(CC(N)=O)Cc1ccccc1)Cc1ccccc1)Cc1ccccc1)Cc1ccccc1)Cc1ccccc1)Cc1ccccc1` [Peptoid 8, (NaeNpheNphe)3] (H-[Gly(N-2-aminoethyl)][Nphe][Nphe][Gly(N-2-aminoethyl)][Nphe][Nphe][Gly(N-2-aminoethyl)][Nphe][Nphe]-NH2), the “ED50 HepG2” value was >100 µM.
With `NCCNCC(=O)N(CC(=O)N(CC(=O)N(CCN)CC(=O)N(CC(=O)N(CC(N)=O)Cc1ccccc1)Cc1ccccc1)Cc1ccccc1)Cc1ccccc1` [Peptoid 9, (NaeNpheNphe)2] (H-[Gly(N-2-aminoethyl)][Nphe][Nphe][Gly(N-2-aminoethyl)][Nphe][Nphe]-NH2) the “ED50 HepG2” value was >100 µM.
With `C[C@@H](c1ccccc1)N(CC(N)=O)C(=O)CN(C(=O)CN(CCCCCCN)C(=O)CN(C(=O)CN(C(=O)CN(CCCCCCN)C(=O)CN(C(=O)CN(C(=O)CNCCCCCCN)[C@@H](C)c1ccccc1)[C@@H](C)c1ccccc1)[C@@H](C)c1ccccc1)[C@@H](C)c1ccccc1)[C@@H](C)c1ccccc1` [Peptoid 11, (NahNspeNspe)3] (H-[Gly(N-(CH2)6NH2)][Nspe][Nspe][Gly(N-(CH2)6NH2)][Nspe][Nspe][Gly(N-(CH2)6NH2)][Nspe][Nspe]-NH2) the “ED50 HepG2” value was >100 µM.
For `C[C@@H](c1ccccc1)N(CC(N)=O)C(=O)CN(C(=O)CN(CCCCCCN)C(=O)CN(C(=O)CN(C(=O)CNCCCCCCN)[C@@H](C)c1ccccc1)[C@@H](C)c1ccccc1)[C@@H](C)c1ccccc1` [Peptoid 12, (NahNspeNspe)2], the “ED50 HepG2” value was >100 µM.
For `C[C@@H](c1ccccc1)N(CC(N)=O)C(=O)CN(C(=O)CN(CCCCN)C(=O)CN(C(=O)CN(C(=O)CNCCCCN)[C@@H](C)c1ccccc1)[C@@H](C)c1ccccc1)[C@@H](C)c1ccccc1` [Peptoid 15, (NLysNspeNspe)2] (H-[Nlys][Nspe][Nspe][Nlys][Nspe][Nspe]-NH2), the “ED50 HepG2” value was >100 µM.
For `C[C@@H](c1ccccc1)N(CC(N)=O)C(=O)CN(C(=O)CN(CCN)C(=O)CN(C(=O)CN(C(=O)CNCCN)[C@@H](C)c1ccccc1)[C@@H](C)c1ccccc1)[C@@H](C)c1ccccc1` [Peptoid 18, (NaeNspeNspe)2], the “ED50 HepG2” value was >100 µM.
`COc1ccc(CN(CC(N)=O)C(=O)CN(Cc2ccc(OC)cc2)C(=O)CN(CCCCN)C(=O)CN(Cc2ccc(OC)cc2)C(=O)CN(Cc2ccc(OC)cc2)C(=O)CN(CCCCN)C(=O)CN(Cc2ccc(OC)cc2)C(=O)CN(Cc2ccc(OC)cc2)C(=O)CN(CCCCN)C(=O)CN(Cc2ccc(OC)cc2)C(=O)CN(Cc2ccc(OC)cc2)C(=O)CNCCCCN)cc1` [Peptoid 19, (NLysNpmbNpmb)4] was tested, and the “ED50 HepG2” value was >100 µM.
